{
  "source": "paper PMC10927987",
  "about": "“Biochemical characterization, structure-guided mutagenesis, and application of a recombinant D-allulose 3-epimerase from Christensenellaceae bacterium for the biocatalytic production of D-allulose” (Frontiers in Bioengineering and Biotechnology, 2024)",
  "system": "T1, CbDAE",
  "T1 construct": "codon-optimized gene in pET-28a(+) (NdeI/EcoRI), E. coli BL21(DE3), Ni-NTA purified, His tag; mutagenesis template given as pET22b-CbDAE",
  "assay": "epimerization, HPLC-RI, Michaelis-Menten fit",
  "assay_type": "biochemical, Christensenellaceae bacterium",
  "conditions": "standard reaction conditions: 1 mM Co2+, 60 °C, 10 min; 5-300 mM substrate",
  "description": "epimerization, HPLC-RI, Michaelis-Menten fit on CbDAE",
  "data": [
    {"compound": "OCC1(O)OC[C@@H](O)[C@@H](O)[C@H]1O", "note": "(stereo partly drawn) [D-allulose]", "values": [
      {"measurement": "Km", "value": "44.9 ± 5.1", "unit": "mM"}
    ]},
    {"compound": "OCC1(O)OC[C@@H](O)[C@H](O)[C@H]1O", "note": "(stereo partly drawn) [D-sorbose]", "values": [
      {"measurement": "Km", "value": "61.6 ± 4.8", "unit": "mM"}
    ]},
    {"compound": "OCC1(O)OC[C@@H](O)[C@H](O)[C@@H]1O", "note": "(stereo partly drawn) [D-tagatose]", "values": [
      {"measurement": "Km", "value": "52.7 ± 6.2", "unit": "mM"}
    ]}
  ]
}
